Among the test systems are COLO 205 colon; HCT-116 colon; HCT-15 colon; LOX IMVI melanoma; OVCAR-5 ovarian; OVCAR-8 ovarian; PC-3 prostate; SF-295 CNS; T-47D breast.
Holding throughout (assay): inhibition of tumour cell growth, NCI panel, 48 h

Structures are written as SMILES.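 Step 1: Grow cells in 96-well plates. Step 2: Expose to compound for 48 hours at 5 concentrations. Step 3: Interpolate endpoints linearly; if unreached, use highest concentration. Here, GI50 denotes the concentration required for 50% inhibition of growth. TGI is the concentration that stops growth completely.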

The source of these data is PubChem BioAssay (NCI).

As to `COc1ccc(-c2c(/C=N/OCC(=O)O)c3sc4ccccc4n3c2/C=N/OCC(=O)O)cc1`, the TGI in the assay on COLO 205 colon, with HCT-116 colon, in the assay on HCT-15 colon, in the assay with LOX IMVI melanoma, with OVCAR-5 ovarian and in the assay on OVCAR-8 ovarian was > 50 µM each time. In addition, the TGI with PC-3 prostate, in the assay on SF-295 CNS and in the assay with T-47D breast was > 50 µM throughout.

On to `CCOC(=O)c1cnc2n(c1=O)[C@H]1CCCC[C@@H]1N2`, for which the TGI in the assay on COLO 205 colon, in the assay on HCT-116 colon, with HCT-15 colon, in the assay with LOX IMVI melanoma, in the assay on OVCAR-5 ovarian and in the assay with OVCAR-8 ovarian was > 100 µM in each case. For the same compound, the TGI in the assay on PC-3 prostate, in the assay on SF-295 CNS and with T-47D breast was > 100 µM throughout.

`Cc1cc(NS(=O)(=O)c2ccc(Nc3c4ccccc4nc4c(C(=O)NC(CO)(CO)CO)cccc34)cc2)no1`: the TGI is > 100 µM in the assay on COLO 205 colon; > 100 µM in the assay on HCT-15 colon; 43.1 µM with LOX IMVI melanoma; > 100 µM with OVCAR-5 ovarian; > 100 µM in the assay on OVCAR-8 ovarian; > 100 µM in the assay on PC-3 prostate. Moreover, the TGI with SF-295 CNS and with T-47D breast was > 100 µM in each case.

On to `COc1ccc(-c2nc(-c3cnccn3)n(C/C=C/c3ccccc3)n2)cc1`, for which the TGI in the assay on COLO 205 colon, with HCT-116 colon, in the assay with HCT-15 colon, in the assay with LOX IMVI melanoma, in the assay with OVCAR-5 ovarian and in the assay with OVCAR-8 ovarian was > 100 µM in each case. Moreover, the TGI was > 100 µM in the assay with PC-3 prostate, 73.4 µM with SF-295 CNS and > 100 µM in the assay on T-47D breast.

As to `COc1ccc(Cn2c(=O)c(OS(=O)(=O)C(F)(F)F)c(C)c3cc4ccccc4cc32)cc1`, the TGI with COLO 205 colon, with HCT-116 colon, in the assay on HCT-15 colon, in the assay with LOX IMVI melanoma, with OVCAR-5 ovarian and in the assay with OVCAR-8 ovarian was > 100 µM throughout. The TGI in the assay on PC-3 prostate, in the assay on SF-295 CNS and with T-47D breast was > 100 µM in each case.

Regarding `O=S1(=O)N=C(SCc2c[nH]c3ccccc23)N(c2ccccc2)c2ccncc21`, the TGI with COLO 205 colon, in the assay with HCT-116 colon, with HCT-15 colon, in the assay on LOX IMVI melanoma, with OVCAR-5 ovarian and in the assay on OVCAR-8 ovarian was > 100 µM throughout. Further, the TGI in the assay on PC-3 prostate, with SF-295 CNS and in the assay on T-47D breast was > 100 µM in each case.

For the compound `CC12CC(c3ccccc3O1)C(C(=O)Nc1nccs1)C(=O)N2` (stereo not drawn), the TGI in the assay with COLO 205 colon, with HCT-116 colon, in the assay with HCT-15 colon, in the assay with LOX IMVI melanoma, in the assay on OVCAR-5 ovarian and with OVCAR-8 ovarian was > 100 µM throughout. For the same compound, the TGI in the assay on PC-3 prostate and with SF-295 CNS was > 100 µM in each case.

Take `Cc1noc(-c2ccc(C(=O)O)[nH]2)c1Br`: the TGI was > 100 µM with COLO 205 colon; > 100 µM with HCT-116 colon; > 100 µM in the assay with HCT-15 colon; > 100 µM in the assay with OVCAR-5 ovarian; 32.2 µM in the assay with OVCAR-8 ovarian; > 100 µM in the assay on PC-3 prostate. Besides, the TGI is > 100 µM in the assay on SF-295 CNS and 71.4 µM with T-47D breast.

Consider `CN(C)Cc1cc(/C=C/C(=O)c2ccc(Br)cc2)cc(CN(C)C)c1O`, for which the TGI in the assay on COLO 205 colon is 30.1 µM; in the assay on HCT-116 colon, 29 µM; in the assay on OVCAR-5 ovarian it was > 100 µM; with OVCAR-8 ovarian, > 100 µM; in the assay on PC-3 prostate, > 100 µM; in the assay with SF-295 CNS, 38.7 µM. In addition, the TGI in the assay with T-47D breast is 35.4 µM.

Turning to `COc1ccc(NCn2nc(CCCCCCCCc3nn(CNc4ccc(OC)cc4)c(=S)o3)oc2=S)cc1`, the TGI in the assay on COLO 205 colon, in the assay with HCT-116 colon, in the assay on HCT-15 colon, with OVCAR-5 ovarian, with PC-3 prostate and in the assay on SF-295 CNS was > 100 µM each time.

Regarding `Cc1cc(C)c(S(=O)(=O)N(CCCCCN)OCCCN)c(C)c1`, the TGI in the assay on COLO 205 colon is 37.9 µM; with HCT-116 colon, 32.7 µM; with LOX IMVI melanoma, 36.8 µM; in the assay on OVCAR-5 ovarian, 33.7 µM; with OVCAR-8 ovarian, 34.1 µM; in the assay with PC-3 prostate it was 28.8 µM. For the same compound, the TGI with SF-295 CNS came out at 30.4 µM; in the assay on T-47D breast it was 37.7 µM.

On to `COc1cc(/C=C2\N=C(c3ccccc3)N(c3cc4cc(Sc5ccccc5)ccc4[nH]3)C2=O)ccc1O`, for which the TGI in the assay with COLO 205 colon, in the assay on HCT-116 colon, in the assay on HCT-15 colon, in the assay on LOX IMVI melanoma, in the assay on OVCAR-5 ovarian and in the assay with OVCAR-8 ovarian was > 50 µM in each case. Besides, the TGI in the assay with T-47D breast is > 50 µM.

As for `COc1cccc(C2C(C#N)=C(N)Oc3cc(OCCCCCC[P+](c4ccccc4)(c4ccccc4)c4ccccc4)ccc32)c1` (stereo not drawn), the GI50 was 2.24 µM in the assay on HCT-15 colon, 1.35 µM in the assay on OVCAR-5 ovarian, 1.58 µM in the assay on SF-295 CNS and 0.354 µM with T-47D breast. Also, the TGI stood at 6.14 µM in the assay on HCT-15 colon, 3.15 µM in the assay with OVCAR-5 ovarian, 3.19 µM with SF-295 CNS and 1.95 µM in the assay on T-47D breast.

For `CSCCC(NC(=O)C(Cc1c[nH]c2ccccc12)NC(=O)CCNC(=O)OC(C)(C)C)C(=O)NC(CC(=O)O)C(=O)NC(Cc1ccccc1)C(N)=O` (stereo not drawn), the TGI in the assay on COLO 205 colon, in the assay on HCT-116 colon, with LOX IMVI melanoma, with OVCAR-5 ovarian, with PC-3 prostate and with SF-295 CNS was > 50 µM throughout. For the same compound, in the assay on T-47D breast, the TGI is > 50 µM.

On to `CC1=NN(c2ccccc2)C(=O)/C1=C\c1c(C)[nH]n(-c2ccccc2)c1=O`, for which the TGI in the assay with COLO 205 colon, with HCT-116 colon, with HCT-15 colon, in the assay with OVCAR-5 ovarian, with OVCAR-8 ovarian and with PC-3 prostate was > 100 µM each time. Besides, the TGI in the assay with SF-295 CNS and in the assay with T-47D breast was > 100 µM each time.

`CC1(C)CC(=O)C2=C(C1)NC(=S)C(C#N)C2c1ccccc1` (stereo not drawn): the TGI in the assay with COLO 205 colon, with HCT-116 colon, in the assay with HCT-15 colon, with LOX IMVI melanoma, in the assay on OVCAR-5 ovarian and with OVCAR-8 ovarian was > 100 µM in each case. Besides, the TGI with PC-3 prostate and in the assay with SF-295 CNS was > 100 µM each time.

On to `O=C(NNC(=O)c1ccncc1)C(=O)Nc1cc(Cl)c(Cl)cc1Cl`, for which the TGI with HCT-116 colon, in the assay with HCT-15 colon, in the assay on LOX IMVI melanoma, in the assay with OVCAR-5 ovarian, with OVCAR-8 ovarian and in the assay on PC-3 prostate was > 100 µM each time. Also, the TGI with SF-295 CNS and in the assay with T-47D breast was > 100 µM each time.

For the compound `C/C(=N\Nc1nc2cc(F)ccc2s1)c1ccccn1`, the TGI in the assay with HCT-116 colon was 13.2 µM; in the assay with HCT-15 colon, 2.12 µM; with OVCAR-5 ovarian, 50.1 µM; in the assay with OVCAR-8 ovarian, 1.79 µM; in the assay with PC-3 prostate, 10.4 µM; in the assay with SF-295 CNS, 4.67 µM. Further, the TGI in the assay with T-47D breast is > 100 µM.

In the case of `Cc1cc2ccccc2oc(=O)/c1=N\Nc1ccccc1`, the TGI with COLO 205 colon, with HCT-116 colon, with HCT-15 colon, in the assay with LOX IMVI melanoma, in the assay with OVCAR-5 ovarian and with OVCAR-8 ovarian was > 100 µM in each case. Besides, the TGI in the assay on PC-3 prostate and in the assay on SF-295 CNS was > 100 µM each time.

On to `O=C1OC2(CCCCC2)C(Oc2ccc(Cl)cc2)=C1F`, for which the TGI in the assay on COLO 205 colon, with HCT-116 colon, in the assay with LOX IMVI melanoma, with OVCAR-5 ovarian, in the assay with OVCAR-8 ovarian and with PC-3 prostate was > 100 µM each time. Further, the TGI in the assay on SF-295 CNS and in the assay with T-47D breast was > 100 µM throughout.

With `CCC1OC2(C)CC(C#N)(C#N)C1(C#N)C(=N)O2` (stereo not drawn), the TGI in the assay on COLO 205 colon, in the assay with HCT-116 colon, in the assay with LOX IMVI melanoma, in the assay with OVCAR-5 ovarian, in the assay with PC-3 prostate and in the assay on SF-295 CNS was > 100 µM in each case. For the same compound, the TGI in the assay with T-47D breast is > 100 µM.

Turning to `CC1(C)Cc2ccccc2C(C)(Cl)C(=O)N1` (stereo not drawn), the TGI in the assay on COLO 205 colon, with HCT-116 colon, in the assay with HCT-15 colon, in the assay on OVCAR-5 ovarian, in the assay on OVCAR-8 ovarian and in the assay on PC-3 prostate was > 10 µM throughout. Further, the TGI in the assay with SF-295 CNS and in the assay on T-47D breast was > 10 µM throughout.

Turning to `Oc1c(NCn2nc(CCCCCCCCc3nn(CNc4ccc5ccccc5c4O)c(=S)o3)oc2=S)ccc2ccccc12`, the TGI in the assay on COLO 205 colon is > 100 µM; with HCT-116 colon, 50.4 µM; in the assay on HCT-15 colon, > 100 µM; in the assay with OVCAR-5 ovarian, > 100 µM; in the assay with PC-3 prostate, > 100 µM; in the assay with SF-295 CNS it was > 100 µM.

As for `COc1c(NC(C)=O)c2ccccc2c2ccccc12`, the TGI with HCT-116 colon, with HCT-15 colon, in the assay on LOX IMVI melanoma, in the assay on OVCAR-5 ovarian, with OVCAR-8 ovarian and in the assay with PC-3 prostate was > 100 µM in each case. Moreover, the TGI with SF-295 CNS and in the assay on T-47D breast was > 100 µM in each case.
